Where two headings read alike, the source gives them in different places.
Key:
[1] = Stability of J1A, J1B and J7 at different pH values (LC-MS); assay type: physicochemical
Method: Stability of compounds J1A, J1B and J7 was evaluated at different pH values. Differential stability/conversion to the active ingredient is expected to result in condition-specific activation and thereby to higher specificity towards target pests.
Stock solutions of the compounds were prepared at concentration of 0.1 mol/L. 10 μL of the stock solutions were transferred to 0.75 ml of the buffer solutions with pH values of 4, 5, 9 and 11. The resulting solutions were incubated for 10 minutes and 3 and 24 h. After specified times samples were analyzed using LC-MS. The compounds J1A, J1B, J7 and the active compound butenyl spinosyn were quantified. It is seen that the three compounds are converted to the active form preferably in alkaline conditions.

[2] = tested on: larvae of Ostrinia nubilialis (development stage L1); assay: Insecticide efficacy, corn leaf dip, Henderson-Tilton method; assay type: in vivo; details: for % efficacy (Henderson-Tilton): Ostrinia, foliar
Method: Insecticide activities of the compounds of this invention were assessed in comparison with commercially available samples of spinosad (LGC (Dr. Ehrenstorfer); Product code: DRE-C16972830) and spinetoram (LGC (Dr. Ehrenstorfer); Product code: DRE-C16972770). Solutions of spinosyn compounds were prepared by adding 0.05% Tween 80, lowering pH to 5.95 and sonicating. Two concentrations of each compound were used, 0.1 μg/ml and 0.3 μg/mL, with each condition tested in four parallels.
Freshly collected corn leaves were dipped into the prepared solutions. After dipping leaves were left to dry at room temperature for 1 hour. Each dry leaf was then infested with 4 larvae of Ostrinia nubilialis (development stage L1), and the experimental device was incubated at 21° C.-23° C. for 24 h in order to optimize insect development. At three timings post infestation (1 day, 3 days and 6 days), the insecticide efficacy is evaluated from the number of living larvae using the Henderson-Tilton method. Untreated control was integrated for normalization and validation of larvae health.

[3] = Kinetic solubility assay; assay type: physicochemical; details: 25 °C, kinetic from dmso stock, dose conc 200 μM, 25±2° C.
Method: Solubility of the compounds of the invention was assessed using kinetic solubility assay and compared to solubility of butenyl spinosyn. Stock solutions of spinosyn compounds were prepared in DMSO at mM concentration). 10 uL of the stock solutions were added into 490 of in K.S. 5.4 buffer of pH 5.4 (80 mM phosphoric acid, acetic acid, boric acid buffer, adjusted the pH to pH 5.4 with 1 N HCl and 1N NaOH) or K.S. 7.4 buffer with pH of 7.4 (80 mM phosphoric acid, acetic acid, boric acid buffer, adjusted the pH to pH 7.4 with 1 N HCl and 1N NaOH). The solutions were incubated with shaking at room […] temperature (25±2° C.) for 24 hours. 200 uL of each solution were then transferred into a new MultiScreen filter plate (Membrane of polycarbonate) and filtered by millipore vacuum manifold, and the filtrate was collected. The concentrtions of tested compounds in the filtered samples were analyzed by HPLC analysis calibrated by a standard curve generated by injection of 3 standard solutions of the relevant compound with concentrations of 1, 20, 200 μM.

[4] = tested on: honey bees (Apis melifera carnica, Pollman 1879); assay: Single dose acute oral toxicity test on adult worker honey bees; assay type: in vivo
Method: Toxicity of the compounds of this invention towards honey bees (Apis melifera carnica, Pollman 1879) was assessed in comparison with commercially available samples of spinosad (LGC (Dr. Ehrenstorfer); Product code: DRE-C16972830) and the naturally produced compound butenyl spinosyn alpha 1. Solutions of spinosyn compounds were prepared in 100 mM ammonium acetate, pH=5, and later diluted in 50% (500 g/L) sucrose solution in water to final concentrations. Two final concentrations were used for each compound, 7.76 μmol/L and 15.53 μmol/L.
Single dose acute oral toxicity tests were conducted on adult worker bees according to previously described standard methods (Medrzycki at el., (2013)). Each compound and condition were tested in two parallels. Briefly, each parallel experiment consisted of 5 cages with 20 honey bees per cage. […] After uptake of the solutions honey bees were supplied with standard 50% sucrose solution and observed at 24 h and 48 h and the number of dead and live bees was estimated.
Ammonium acetate solution with pH 5 was used as the negative control.

CC/C=C/[C@H]1CCC[C@H](OC2CCC([N+](C)(C)COC(=O)OC(C)C)C(C)O2)[C@@H](C)C(=O)C2=C[C@@H]3[C@@H](C=C[C@@H]4C[C@@H](OC5OC(C)C(OC)C(OC)C5OC)C[C@@H]34)[C@@H]2CC(=O)O1 (stereo partly shown) [Compound J7]
BuSPN Area % (active butenyl spinosyn released) ([1]; buffer pH 4, 0.16 h): 0.0% | Compound (J1A/J1B/J7) Area % remaining ([1]; buffer pH 4, 0.16 h): 19.2% | BuSPN Area % (active butenyl spinosyn released) ([1]; buffer pH 4, 3 h): 0.0% | Compound (J1A/J1B/J7) Area % remaining ([1]; buffer pH 4, 3 h): 4.1% | BuSPN Area % (active butenyl spinosyn released) ([1]; buffer pH 4, 24 h): 0.0% | Compound (J1A/J1B/J7) Area % remaining ([1]; buffer pH 4, 24 h): 3.8% | BuSPN Area % (active butenyl spinosyn released) ([1]; buffer pH 5, 0.16 h): 0.2% | Compound (J1A/J1B/J7) Area % remaining ([1]; buffer pH 5, 0.16 h): 99.2% | BuSPN Area % (active butenyl spinosyn released) ([1]; buffer pH 5, 3 h): 0.3% | Compound (J1A/J1B/J7) Area % remaining ([1]; buffer pH 5, 3 h): 99.7% | BuSPN Area % (active butenyl spinosyn released) ([1]; buffer pH 5, 24 h): 0.5% | Compound (J1A/J1B/J7) Area % remaining ([1]; buffer pH 5, 24 h): 99.2% | BuSPN Area % (active butenyl spinosyn released) ([1]; buffer pH 9, 0.16 h): 44.4% | Compound (J1A/J1B/J7) Area % remaining ([1]; buffer pH 9, 0.16 h): 54.2% | BuSPN Area % (active butenyl spinosyn released) ([1]; buffer pH 9, 3 h): 90.8% | Compound (J1A/J1B/J7) Area % remaining ([1]; buffer pH 9, 3 h): 7.6% | BuSPN Area % (active butenyl spinosyn released) ([1]; buffer pH 9, 24 h): 93.8% | Compound (J1A/J1B/J7) Area % remaining ([1]; buffer pH 9, 24 h): 0.6% | BuSPN Area % (active butenyl spinosyn released) ([1]; buffer pH 11, 0.16 h): 93.1% | Compound (J1A/J1B/J7) Area % remaining ([1]; buffer pH 11, 0.16 h): 6.7% | BuSPN Area % (active butenyl spinosyn released) ([1]; buffer pH 11, 3 h): 99.8% | Compound (J1A/J1B/J7) Area % remaining ([1]; buffer pH 11, 3 h): 0.0% | BuSPN Area % (active butenyl spinosyn released) ([1]; buffer pH 11, 24 h): 99.4% | Compound (J1A/J1B/J7) Area % remaining ([1]; buffer pH 11, 24 h): 0.0% | insecticidal activity on Ostrinia nubilialis larvae (in words) ([2]; 0.1 and 0.3 μg/mL, leaf dip): extremely potent insecticidal activity | % efficacy (Henderson-Tilton) ([2]; 24 h, read-out: % Efficacy, dose 0.1 μg a.i./ml, 1 day post infestation): 31% | % efficacy (Henderson-Tilton) ([2]; 24 h, read-out: % Efficacy, dose 0.3 μg a.i./ml, 1 day post infestation): 44% | % efficacy (Henderson-Tilton) ([2]; 72 h, read-out: % Efficacy, dose 0.1 μg a.i./ml, 3 days post infestation): 73% | % efficacy (Henderson-Tilton) ([2]; 72 h, read-out: % Efficacy, dose 0.3 μg a.i./ml, 3 days post infestation): 91% | % efficacy (Henderson-Tilton) ([2]; 144 h, read-out: % Efficacy, dose 0.1 μg a.i./ml, 6 days post infestation): 91% | % efficacy (Henderson-Tilton) ([2]; 144 h, read-out: % Efficacy, dose 0.3 μg a.i./ml, 6 days post infestation): 100% | solubility kinetic at 24 h ([3]; pH 5.4, aqueous buffer, K.S. 5.4 buffer, read-out: Kinetic Solubility pH = 5.4): 192 µM | solubility kinetic at 24 h ([3]; pH 7.4, aqueous buffer, K.S. 7.4 buffer, read-out: Kinetic Solubility pH = 7.4): 145 µM | % of surviving honey bees ([4]; single oral dose 0.078 nmol/bee, 24 h after application): 96% | % of surviving honey bees ([4]; single oral dose 0.078 nmol/bee, 48 h after application): 94% | % of surviving honey bees ([4]; single oral dose 0.155 nmol/bee, 24 h after application): 85% | % of surviving honey bees ([4]; single oral dose 0.155 nmol/bee, 48 h after application): 63%

Reference: US20240209014A1, “NOVEL SPINOSYN PRODRUGS” (Acies Bio d.o.o., priority 2021, published 2024)
